According to patent publication US11426367B2, “Methods of treating substance abuse” (Perception Neuroscience, Inc., priority 2018, dated 2022):

Columns and labels:
[1] = tested on: Control C57/B6 mice; test: Prepulse inhibition test in control mice; conditions: control mice, 5, 10 or 20 mg/kg
Protocol: PP69, PP73, PP77, and PP81 mean that stimuli at 69, 73, 77, and 81 dB for more than 20 milliseconds were presented 100 milliseconds before a 110-dB pulse, respectively. Data analysis was performed by Wilks Lambda, which is multivariate analysis of variance (Example 3).
The prepulse inhibition test was performed using a startle response system (SR-LAB, SanDiego Instruments, San Diego, Calif., United States). The analysis of the results of prepulse inhibition was performed by multivariate analysis of variance (MANOVA), followed by a least significant difference test (LSD test). Data are presented as the mean plus minus standard error of the mean (n=10 to 12 mice/group). *p<0.05 and p<0.01 indicate significant differences as compared to a group injected with saline.

[2] = tested on: Control C57/B6 mice; test: Locomotion-enhancing effect in control mice; format: in vivo
Protocol: An effect of ketamine on the locomotion of mice was tested using SCANET MV-40 ([…] Co., Ltd., Toyama, Japan). Specifically, the locomotion was measured for a total of 180 minutes, i.e., 60 minutes before injection to 120 minutes after injection, and calculated as a locomotion per 10 minutes. The statistical analysis of the results of the locomotion was performed by repeated one-way analysis of variance (repeated one-way ANOV A), followed by a least significant difference test (LSD test).

[3] = tested on: Morphine Seizures; conditions: Not blocked by naloxone; Kolesnikov et al., 1997; cited from earlier work
[4] = tested on: social defeat stress mice; test: Tail suspension test (TST), social defeat stress model; format: in vivo; conditions: 10 mg/kg i.p.
Protocol: (§1) A social defeat stress model of depression was prepared by bringing C57/B6 male mice into contact with ICR male mice (large aggressive mice) for 10 consecutive days to apply a stress called a “social defeat stress” in accordance with the previous report (Non Patent Literature 19). […] Specifically, an increase in immobility time was found in each of a tail suspension test (TST) and a forced swimming test (FST).
(§2) The preparation of the animal model of depression and the administration of the agent were specifically performed as described below (FIG. 3A). Male C57/B6 mice (7-week-old, Japan SLC, Inc., Hamamatsu, Japan) and ICR mice (9-week-old, Japan SLC, Inc., Hamamatsu, Japan) were used. The mice were given free access to water and feed. A social defeat stress was applied by housing one C57/B6 mouse with one ICR mouse for 10 days.
(§3) The antidepressant effects of the agent were investigated by behavioral tests such as the TST, the PST, the LMT, and a 1% sucrose preference test (SPT) (FIG. 3A). The 1% sucrose preference test (SPT) was performed on 1 day and 6 days after the injection of ketamine. Each of the TST and the PST was performed on 2 days and 7 days after the injection of ketamine. The TST was performed as described below. First, the mice were taken out from cages, and then a small piece of an adhesive tape was bonded onto a portion approximately 2 cm away from the tip of the tail of the mice. A small hole was opened in the small piece, and the mice were each fixed upside down on a hook through the small hole. The immobility time of each mouse was recorded for 10 minutes. Mice were considered immobile only when they hung passively and completely motionless. The immobility time increases in a depressive state. The PST was performed as described below. First, the mice were placed individually in a cylinder (diameter: 23 cm; height: 31 cm) containing 15 cm of water, maintained at 22 to 24 deg C. The mice were tested in an automated forced-swimming apparatus using SCANET MV-40 ([…] Co., Ltd., Toyama, Japan). The immobility time was calculated as a value obtained by subtracting active time from total time, using the analysis software of the apparatus. Cumulative immobility time was recorded over 6 minutes during a test period. The LMT was performed as described below. First, the mice were placed in experimental cages (length×width×height: 560×560×330 mm). The locomotor activity of the mice was counted with SCANET MV-40, and the cumulative exercise of the mice was recorded for 60 minutes. The cages were cleaned between testing session. The immobility time increases in a depressive state. […] A spine density was quantitatively evaluated by observation with a KEYENCE microscope (BZ-9000, Osaka, Japan).

[5] = tested on: rewarding effects of morphine; test: Morphine-induced conditioned place preference; format: in vivo, mice; conditions: for Morphine CPP, dose blocking the rewarding effects of morphine: Table 11, Present study
Protocol: The methods for conditioned place preference and evaluation of R-ketamine were conducted using the general methods of Suzuki et al. (2000). The general design was to dose mice with either saline+saline, saline+morphine, or R-ketamine+morphine and evaluate their preference for the morphine-associated place.
Male ddY mice (20-23 g) were obtained from Tokyo Experimental Animals Inc. (Tokyo, Japan). The ddY mice were bred in a closed colony. The mice were housed at a temperature of 22 f 1° C. with a 12-h light-dark cycle (light on 8:30 a.m. to 8:30 p.m.). Food and water were available ad libitum.
Place conditioning was conducted as described previously, using a minor modification of a biased procedure according to Suzuki et al. (2000). The apparatus consisted of a shuttlebox (15×30×15 cm: w×l×h) made of an acryl-resin board. The box was divided into two compartments of equal size by means of a sliding partition. One compartment was white with a textured floor; the other was black with a smooth floor. For conditioning mice were immediately conditioned to the white compartment following drug injection and to the black compartment following vehicle injection.
Conditioning sessions were conducted once daily for 6 consecutive days. […] Preference for a particular place was assessed in the drug-free state after placing the animals on the neutral platform and allowing them free access to both compartments. The time spent in each compartment during a 900-sec session was then measured automatically in a blinded fashion by two infrared beam sensors (KN-80, Natsume Seisakusyo, Tokyo, Japan) on the covers (3 cm from the center and the side) of the white and black compartments. […]
Conditioning scores represent the time spent in the drug-paired place minus the time spent in the vehicle-paired place, and are expressed as the mean±S.E.M. Behavioral data were evaluated statistically with a one-way analysis of variance (ANOVA) followed by Dunnett's test to determine whether individual doses produced significant conditioning.

[6] = tested on: dopamine release in the striatum; conditions: imaging studies in nonhuman primates; Hashimoto et al., 2017; cited from earlier work
[7] = tested on: social defeat stress mice; test: 1% sucrose preference test (SPT), social defeat stress model; format: in vivo; conditions: 10 mg/kg i.p.
Protocol: as §1, §2, §3

[8] = tested on: social defeat stress mice; test: Locomotion test (LMT), social defeat stress model; format: in vivo; conditions: 10 mg/kg i.p., 2 days after injection
Protocol: as §1
The preparation of the animal model of depression and the administration of the agent were specifically performed as described below (FIG. 3A). Male C57/B6 mice (7-week-old, Japan SLC, Inc., Hamamatsu, Japan) and ICR mice (9-week-old, Japan SLC, Inc., Hamamatsu, Japan) were used. […]
The antidepressant effects of the agent were investigated by behavioral tests such as the TST, the PST, the LMT, and a 1% sucrose preference test (SPT) (FIG. 3A). […] The immobility time of each mouse was recorded for 10 minutes. […] The immobility time was calculated as a value obtained by subtracting active time from total time, using the analysis software of the apparatus. Cumulative immobility time was recorded over 6 minutes during a test period. […] The locomotor activity of the mice was counted with SCANET MV-40, and the cumulative exercise of the mice was recorded for 60 minutes. […] A spine density was quantitatively evaluated by observation with a KEYENCE microscope (BZ-9000, Osaka, Japan).

[9] = tested on: social defeat stress mice; test: Forced swimming test (FST), social defeat stress model; format: in vivo; conditions: 10 mg/kg i.p.
Protocol: as §1, §2, §3

| Structure (SMILES) | prepulse inhibition [1] | locomotion after injection ([2]; control mice, 5, 10 or 20 mg/kg) | Morphine Seizures, dose [3] [mg/kg] | immobility time in the TST ([4]; 2 days after injection) | immobility time in the TST ([4]; 7 days after injection) | conditioned place preference induced by morphine ([5]; 10 mg/kg i.p. co-dosed with morphine 5 mg/kg i.p., F(2,29)=2.2, p=0.064) | Morphine CPP, dose blocking the rewarding effects of morphine [5] [mg/kg] | dopamine release in the striatum [6] | sucrose consumption preference in the SPT ([7]; 1 day after injection) | sucrose consumption preference in the SPT ([7]; 6 days after injection) | locomotion in the LMT [8] | immobility time in the FST ([9]; 2 days after injection) | immobility time in the FST ([9]; 7 days after injection) | time after injection at which locomotion returned to a normal value ([2]; control mice, 10 mg/kg or 20 mg/kg) [min] | locomotion after injection ([2]; control mice, 10 mg/kg or 20 mg/kg, 10 minutes and 20 minutes after injection, vs saline) |
| --- | --- | --- | --- | --- | --- | --- | --- | --- | --- | --- | --- | --- | --- | --- | --- |
| CN[C@@]1(c2ccccc2Cl)CCCCC1=O.Cl [R(−)-ketamine] | did not disrupt prepulse inhibition | did not affect the locomotion | 0.3 | markedly reduced the immobility time | significantly reduced the immobility time | trend toward significant attenuation | 10 | not | sucrose consumption preference significantly increased | significantly restored the sucrose consumption preference | no difference in locomotion | markedly reduced the immobility time | significantly reduced the immobility time |  |  |
| CN[C@]1(c2ccccc2Cl)CCCCC1=O [S(+)-ketamine] | disrupted prepulse inhibition in a dose-dependent manner |  | 0.03 | markedly reduced the immobility time | significantly reduced the immobility time |  | 10 | increases dopamine release in the striatum | sucrose consumption preference significantly increased | significantly restored the sucrose consumption preference | no difference in locomotion | markedly reduced the immobility time | significantly reduced the immobility time | 30 | significant increase in locomotion |
